Test results as given in patent publication US6399625B1, “1-oxorapamycins” (Wyeth, priority 2000, dated 2002).
≈ marks a conversion by molar mass, not a printed value. Like-named read-outs stand apart in the source and are kept apart here.

Legend:
Format in all cases: cell-based
C. tropicalis GC 3081 = assay: Antifungal activity, microtiter broth dilution MIC; conditions: 24-48 hours
Experimental: (§1) The antifungal activity for the 1-oxorapamycins of this invention was confirmed in a standard pharmacological test procedure which measured the ability of the compound being evaluated to inhibit fungal growth. 1-Oxorapamycin (Compound I), 1-oxorapamycin 42-ester with 3-hydroxy-2-(hydroxymethyl)-2-methylpropionic acid (Compound II), and 42-O-(2-hydroxy)ethyl 1-oxorapamycin (Compound III) were evaluated as representative compounds of this invention. The procedure used and results obtained are briefly described below. A 96 U-bottom microtiter plate was filled (50 μl/well) with RPMI 1640. The compounds to be evaluated were placed in appropriate wells, and serial diluted in successive wells to provide 11 dilutions. The concentrations ranged from 64 through 0.06 μg/ml. An adjusted inoculum of fungi (50 μl) was added to each well and the plates were incubated at 35° C. for 24-48 hours. […] Nystatin and rapamycin were used for the purpose of comparison.

A. niger GC 3091 = assay: Antifungal activity, microtiter broth dilution MIC; conditions: 24-48 hours
Experimental: as §1

A. fumigatus GC 3092 = assay: Antifungal activity, microtiter broth dilution MIC
Experimental: as §1

C. parapsilosis GC 3074 = assay: Antifungal activity, microtiter broth dilution MIC; conditions: 24-48 hours
Experimental: as §1

C. albicans GC 3066 = assay: Antifungal activity, microtiter broth dilution MIC; conditions: 24-48 hours
Experimental: as §1

A. niger GC 6591 = assay: Antifungal activity, microtiter broth dilution MIC; conditions: 24-48 hours
Experimental: as §1

C. albicans GC 3064 = assay: Antifungal activity, microtiter broth dilution MIC; conditions: 24-48 hours
Experimental: as §1

C. albicans GC 3065 = assay: Antifungal activity, microtiter broth dilution MIC; conditions: 24-48 hours
Experimental: as §1

C. krussii GC 3067 = assay: Antifungal activity, microtiter broth dilution MIC; conditions: RPMI 1640, 35° C., 24-48 hours
Experimental: as §1

C. pseudotropicalis 3070 = assay: Antifungal activity, microtiter broth dilution MIC; conditions: RPMI 1640, 35° C., 24-48 hours
Experimental: as §1

C. parapsilosis GC 3075 = assay: Antifungal activity, microtiter broth dilution MIC; conditions: 24-48 hours
Experimental: as §1

C. lusitaniae GC 3068 = assay: Antifungal activity, microtiter broth dilution MIC; conditions: RPMI 1640, 35° C., 24-48 hours; for MIC: Clavispora lusitaniae
Experimental: as §1

C. parapsilosis GC 3076 = assay: Antifungal activity, microtiter broth dilution MIC; conditions: 24-48 hours
Experimental: as §1

C. tropicalis GC 3080 = assay: Antifungal activity, microtiter broth dilution MIC; conditions: 24-48 hours
Experimental: as §1

[1] = tested on: 3T3/H2N (ovarian—resistant to cis-platin) tumor cell line; assay: Antineoplastic activity, tumor cell growth inhibition (sulforhodamine B); conditions: 3T3/H2N cells, 48 hours
From the text: (§2) Antineoplastic activity for the compounds of this invention was confirmed by evaluating the antineoplastic activity of representative compounds of this invention (Compounds I-III) against six tumor cell lines in vitro. Briefly, tumor cells from six cell lines were placed in wells of a 96 well microtiter plate. The following tumor cell lines were used: 3T3 (ovarian), 3T3/H2N (ovarian—resistant to cis-platin), A431 (vulva epidermoid origin), SW620 (colon), SKBR3 (breast), and MDA-435 (breast). The tumors cells were grown in the presence of serial dilutions of the compound to be evaluated for 48 hours, and cell growth determined using a colorimetric procedure (sulforhrodamine B). The inhibition of growth was calculated compared to the number of cells at the time of test compound addition. Results are expressed as an IC50 (μg/ml); N/A indicates the compound was not evaluated against that cell line. The following IC50s was listed on Table 2.

[2] = tested on: A431 (vulva epidermoid origin) tumor cell line; assay: as above; conditions: Homo sapiens, A-431, A431 cells, 48 hours
From the text: as §2

[3] = tested on: SKBR3 (breast) tumor cell line; assay: as above; conditions: Homo sapiens, SK-BR-3, SKBR3 cells, 48 hours
From the text: as §2

[4] = tested on: MDA-435 (breast) tumor cell line; assay: as above; conditions: MDA435 cells, 48 hours
From the text: as §2

[5] = tested on: SW620 (colon) tumor cell line; assay: as above; conditions: Homo sapiens, SW-620, SW620 cells, 48 hours
From the text: as §2

[6] = tested on: 3T3 (ovarian) tumor cell line; assay: as above; conditions: Mus musculus, NIH3T3, 3T3 cells, 48 hours
From the text: as §2

SH-SY5Y cells = assay: Neuroregeneration activity, neurite outgrowth; conditions: aphidicolin pretreated, mean ± SEM
From the text: The neuroregeneration activity for the compounds of this invention was confirmed in a standard pharmacological test procedure by evaluating 1-oxo-rapamycin (Compound I) as representative compound of this invention, against SH-SY5Y cells in vitro [Gold et al., Exp Neurol 147: 269-278, 1997]. Briefly, SH-SY5Y cells were placed in 6-well plate treated with aphidicolin for 5 days followed by the test compounds using 6-well plates. For controls, wells were untreated, or treated with nerve growth factor (NGF) alone. Test wells were treated with NGF plus compound I or rapamycin. Cells were photographed at 168 hours. Analysis of neuritic lengths was performed on photographic prints using a Houston Instrument HI-PAD digitizing tablet connected to an IBM XT computer with appropriate software (Bioquant IV, R&M Biometrics, Nashville, Tenn.). Mean values for axonal areas were compared using by ANOVA (STATVIEW, Abacus Concepts, Inc., Berkeley, Calif. The following table summarizes the results that were obtained.

In the case of `C[C@@H]1[C@H](O)[C@@H](C)/C=C/C=C/CC/C=C/C=C/C=C/C=C/C(O[C@H]2O[C@H](C)[C@@H](O)[C@H](N)[C@@H]2O)CC2O[C@](O)(CC(O)C(O)CCC(O)CC(O)CC(O)CC(=O)O[C@H]1C)CC(O)C2C(=O)O` (some centres unmarked) [Nystatin, reference compound], the “ANTIFUNGAL ACTIVITY (MIC)” value (C. tropicalis GC 3081; RPMI 1640, 35° C.) is reported as 1 µg/mL, the “ANTIFUNGAL ACTIVITY (MIC)” value (A. niger GC 3091; RPMI 1640, 35° C.) is reported as 2 µg/mL and the “ANTIFUNGAL ACTIVITY (MIC)” value (A. fumigatus GC 3092; A. fumigatus GC 3092, RPMI 1640, 35° C., 24-48 hours) is reported as 1 µg/mL. The “ANTIFUNGAL ACTIVITY (MIC)” value (C. parapsilosis GC 3074; RPMI 1640, 35° C.) was 1 µg/mL, the “ANTIFUNGAL ACTIVITY (MIC)” value (C. albicans GC 3066; RPMI 1640, 35° C.) was 1 µg/mL and the “ANTIFUNGAL ACTIVITY (MIC)” value (A. niger GC 6591; RPMI 1640, 35° C.) was 2 µg/mL. For the same compound, the “ANTIFUNGAL ACTIVITY (MIC)” value (C. albicans GC 3064; RPMI 1640, 35° C.) was 1 µg/mL, the “ANTIFUNGAL ACTIVITY (MIC)” value (C. albicans GC 3065; RPMI 1640, 35° C.) was 1 µg/mL and the “ANTIFUNGAL ACTIVITY (MIC)” value (C. krussii GC 3067) was 1 µg/mL. The “ANTIFUNGAL ACTIVITY (MIC)” value (C. pseudotropicalis 3070) was 0.50 µg/mL, the “ANTIFUNGAL ACTIVITY (MIC)” value (C. parapsilosis GC 3075; RPMI 1640, 35° C.) was 0.50 µg/mL and the “ANTIFUNGAL ACTIVITY (MIC)” value (C. lusitaniae GC 3068; C. lusitaniae GC 3068, first listing (r26)) was 0.50 µg/mL. The “ANTIFUNGAL ACTIVITY (MIC)” value (C. lusitaniae GC 3068; C. lusitaniae GC 3068, second listing (r28)) was 1 µg/mL, the “ANTIFUNGAL ACTIVITY (MIC)” value (C. parapsilosis GC 3076; RPMI 1640, 35° C.) was 0.50 µg/mL and the “ANTIFUNGAL ACTIVITY (MIC)” value (C. tropicalis GC 3080; RPMI 1640, 35° C.) was 0.25 µg/mL.
With `CO[C@H]1C[C@@H]2CC[C@@H](C)[C@@](O)(O2)C(=O)C(=O)N2CCCC[C@H]2C(=O)O[C@H]([C@H](C)C[C@@H]2CC[C@@H](O)[C@H](OC)C2)CC(=O)[C@H](C)/C=C(\C)[C@@H](O)[C@@H](OC)C(=O)[C@H](C)C[C@H](C)/C=C/C=C/C=C/1C` [Rapamycin] the MIC (C. tropicalis GC 3081; Candida tropicalis, GC3081, RPMI 1640, 35° C.) was 0.25 µg/mL (≈ 0.273 µM), the MIC (A. niger GC 3091; Aspergillus niger, GC3091, RPMI 1640, 35° C.) was > 128 µg/mL and the MIC (A. fumigatus GC 3092; Aspergillus fumigatus, GC3092, read-out: ANTIFUNGAL ACTIVITY (MIC)) was > 128 µg/mL. For the same compound, the MIC (C. parapsilosis GC 3074; Lodderomyces parapsilosis, GC3074, RPMI 1640, 35° C.) was 0.25 µg/mL (≈ 0.273 µM), the MIC (C. albicans GC 3066; Candida albicans, GC3066, RPMI 1640, 35° C.) was < 0.12 µg/mL and the MIC (A. niger GC 6591; Aspergillus niger, GC6591, RPMI 1640, 35° C.) was > 128 µg/mL. For the same compound, the MIC (C. albicans GC 3064; Candida albicans, GC3064, RPMI 1640, 35° C.) was < 0.12 µg/mL, the MIC (C. albicans GC 3065; Candida albicans, GC3065, RPMI 1640, 35° C.) was 0.5 µg/mL (≈ 0.547 µM) and the MIC (C. krussii GC 3067) was 4 µg/mL (≈ 4.38 µM). The MIC (C. pseudotropicalis 3070; Kluyveromyces marxianus) was < 0.12 µg/mL, the MIC (C. parapsilosis GC 3075; Lodderomyces parapsilosis, GC3075, RPMI 1640, 35° C.) was < 0.12 µg/mL and the MIC (C. lusitaniae GC 3068; GC3068, C. lusitaniae GC 3068, first listing (r26), read-out: ANTIFUNGAL ACTIVITY (MIC)) was < 0.12 µg/mL. The MIC (C. lusitaniae GC 3068; GC3068, read-out: ANTIFUNGAL ACTIVITY (MIC), C. lusitaniae GC 3068, second listing (r28)) was 0.5 µg/mL (≈ 0.547 µM), the MIC (C. parapsilosis GC 3076; Lodderomyces parapsilosis, GC3076, RPMI 1640, 35° C.) was < 0.12 µg/mL and the MIC (C. tropicalis GC 3080; Candida tropicalis, GC3080, RPMI 1640, 35° C.) was 0.25 µg/mL (≈ 0.273 µM). The IC50 [1] was 1.7 µg/mL (≈ 1.86 µM), the IC50 [2] was 1.9 µg/mL (≈ 2.08 µM) and the IC50 [3] was 0.87 µg/mL (≈ 0.952 µM). The IC50 [4] was 1.3 µg/mL (≈ 1.42 µM), the IC50 [5] was 2.3 µg/mL (≈ 2.52 µM) and the IC50 [6] was 0.48 µg/mL (≈ 0.525 µM). For the same compound, the “Mean Neurite Lengths after 168 h, Neurite Length” value (SH-SY5Y cells; NGF plus test compound) was 261.4 ± 13.1 μm.
For “NGF: nerve growth factor (NGF), control treatment alone and co-treatment in neurite test”, the “Mean Neurite Lengths after 168 h, Neurite Length” value (SH-SY5Y cells; NGF alone (control)) was 196.5 ± 7.7 μm.
